Consider one compound from US11046673B1, “Tetrazolinone compounds and its use” (SUMITOMO CHEMICAL COMPANY, LIMITED, priority 2016, dated 2021).

The test system of this assay is wheat rust fungi (Puccinia recondita). The assay can be described thus: Test Example 13 / Comparative Test Example 1: wheat rust, foliar spray. The assay is classed as in vivo. The conditions noted are these: wheat (cv Shirogane), 12.5 ppm foliar spray, inoculated after 5 days. On the procedure: A plastic pot was filled with soil and thereto wheat (cv; Shirogane) seeds were sown and the plants were grown in a greenhouse for 9 days. Any of the present compounds 1, 2, 3, 5, 6, 7, 8, 9, 10, 12, 13, 14, 15, 18, 19, 20, 21, 26, 27 and 28 each of which was made to a formulation according to the similar method to that of Formulation Example 6, was adjusted with water so as to be 12.5 ppm, and the adjusted solutions were sprayed to foliar parts so as to adhere adequately on the leaves of the above-mentioned wheat. After spraying the adjusted solutions, the plants were air-dried and were then cultivated at 20° C. under lighting for 5 days. The spores of wheat rust fungi (Puccinia recondita) were sprinkling-inoculated. After the inoculation, the plants were placed under a dark and humid condition at 23° C. for 1 day and were then cultivated at 20° C. under lighting for 8 days, and a lesion area was observed.
A plastic pot was filled with soils and thereto was seeded wheat (cv; Shirogane) and the plants were grown in a greenhouse for 9 days. 1-(2-{[2-methyl-4-(1-methyl-1H-pyrazol-3-yl)phenoxy]methyl}-3-methylphenyl)-4-m ethyl-4,5-dihydrotetrazole-5-one which was made to a formulation according to the similar method to that of Formulation Example 6 was adjusted with water so as to be 12.5 ppm. […]

Molecules are shown by their SMILES.

On to `Cc1cc(-c2ccn(C)n2)ccc1OCc1c(C)cccc1-n1nnn(C)c1=O` [1-(2-{[2-methyl-4-(1-methyl-1H-pyrazol-3-yl)phenoxy]methyl}-3-methylphenyl)-4-m ethyl-4,5-dihydrotetrazole-5-one], for which the “lesion area compared to the lesion area in untreated plants” value is on record as no less than 70%.
